Data: ChEMBL document CHEMBL1201862, “PubChem BioAssay data set” (2004)
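Dose response: 5 concentrations. Exposure: 48 h. Format: 96-well plates. Endpoint: linear interpolation; highest concentration if not reached. At the GI50, growth is halved.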 Activity calls are given as the source filed them. Rule as the data show it: active = GI50 up to about 1.1 µM and inactive = higher.

Experiments:
Assay in all cases: inhibition of tumour cell growth, NCI panel, 48 h
[1] = system: UACC-62
[2] = system: NCI-H226
[3] = system: CCRF-CEM
[4] = system: KM12
[5] = system: Hs-578T
[6] = system: SF-295
[7] = system: RPMI-8226
[8] = system: Malme-3M
[9] = system: A498
[10] = system: SR
[11] = system: SN12C
[12] = system: HCC 2998
[13] = system: SNB-19
[14] = system: HOP-92
[15] = system: PC-3
[16] = system: MDA-MB-435
[17] = system: NCI-H23
[18] = system: NCI/ADR-RES
[19] = system: K562
[20] = system: NCI-H460
[21] = system: UACC-257
[22] = system: M14
[23] = system: SK-OV-3
[24] = system: MCF7
[25] = system: SF-268
[26] = system: ACHN
[27] = system: OVCAR-4
[28] = system: SW-620
[29] = system: SK-MEL-28
[30] = system: CAKI-1
[31] = system: HL-60
[32] = system: SF-539
[33] = system: SK-MEL-2
[34] = system: HT-29
[35] = system: SK-MEL-5
[36] = system: OVCAR-3
[37] = system: BT-549
[38] = system: RXF 393
[39] = system: HOP-62
[40] = system: MOLT-4
[41] = system: COLO 205
[42] = system: MDA-N
[43] = system: DU-145
[44] = system: 786-0
[45] = system: MDA-MB-231
[46] = system: OVCAR-8
[47] = system: LOX IMVI
[48] = system: T47D
[49] = system: A549
[50] = system: OVCAR-5
[51] = system: EKVX
[52] = system: HCT-116
[53] = system: HCT-15
[54] = system: TK-10
[55] = system: SNB-75
[56] = system: IGROV-1
[57] = system: UO-31
[58] = system: NCI-H522
[59] = system: U-251

Measured: GI50

CN(C)/C=C/c1c2c(nc3ccccc13)C(=O)c1cccnc1C2=O
active: [1] 541 nM | [2] 292 nM | [4] 350 nM | [6] 570 nM | [8] 697 nM | [9] 865 nM | [10] 221 nM | [11] 532 nM | [13] 562 nM | [15] 542 nM | [16] 548 nM | [17] 592 nM | [18] 321 nM | [19] 446 nM | [20] 109 nM | [21] 668 nM | [22] 218 nM | [23] 792 nM | [24] 262 nM | [25] 410 nM | [26] 217 nM | [27] 351 nM | [28] 244 nM | [29] 552 nM | [31] 299 nM | [32] 300 nM | [35] 151 nM | [36] 56.8 nM | [37] 402 nM | [38] 705 nM | [39] 57.9 nM | [42] 540 nM | [43] 416 nM | [44] 226 nM | [45] 867 nM | [46] 407 nM | [47] < 10 nM | [49] 912 nM | [52] 197 nM | [55] 432 nM | [57] 557 nM | [58] 315 nM | [59] 353 nM
90.8 nM: [53]
inactive: [3] 1.84 µM | [5] 1.58 µM | [7] 1.89 µM | [12] 1.28 µM | [14] 2.04 µM | [30] 1.46 µM | [33] 1.62 µM | [34] 2.2 µM | [40] 2.01 µM | [41] 2.07 µM | [48] 3.97 µM | [50] 1.45 µM | [51] 2.25 µM | [54] 1.4 µM | [56] 1.42 µM
